Source: US20020107414A1, “Method of prostaglandin synthesis” (priority 1993, published 2002)
Like-named read-outs stand apart in the source and are kept apart here.

What was measured:
[1] = test system: intraocular pressure (IOP); details: rabbits, cited from earlier work
[2] = test system: intraocular pressure in human eyes; details: cited from earlier work
[3] = test system: intraocular pressure (IOP); assay: IOP reduction in cynomolgus monkeys with ocular hypertension produced by laser trabeculoplasty; assay type: in vivo; details: for Percent IOP Reduction at Hours after Dose/Dose# 2/5: 2 hours after fifth dose; for Percent IOP Reduction at Hours after Dose/Dose# 4/5: 4 hours after fifth dose; for Percent IOP Reduction at Hours after Dose/Dose# 6/5: 6 hours after fifth dose; for Percent IOP Reduction at Hours after Dose/Dose# 16/4: 16 hours after fourth dose; for reduction of intraocular pressure (in words): at doses marginal or ineffective for other prostaglandins in published clinical studies
Experimental: The ability of certain compounds of the present invention to reduce intraocular pressure (IOP) was evaluated in cynomolgus monkeys with ocular hypertension produced by previous laser trabeculoplasty in the right eye. Animals had been trained to sit in restraint chairs and conditioned to accept experimental procedures without chemical restraint. IOP was determined with a pneumatonometer after light corneal anesthesia with dilute proparacaine. The test protocol included a treatment regimen consisting of 5 divided doses administered over a period of 2 and ½ days. Doses 2-5 were given 8, 24, 32 and 48 hours after the initial dose. Baseline IOP values were determined prior to treatment with the test formulation, and then IOP was determined 16 hours after the fourth dose, and 2, 4 and 6 hours after the fifth dose. Prostaglandin doses are micrograms of compound contained in each treatment. The two compounds tested are those previously identified as Compounds (II) and (IV).

## O=C(O)CCCCCCC1C(=O)NC(=O)N1CCC(O)C1CCCCC1 (stereo not shown) [BW245C]
[1]; 25 μg
  maximum IOP reduction: ~22%
[2]; 2.5 μg
  reduction of intraocular pressure in human eyes: 10%

## CC(C)(C)OC(=O)COC/C=C\C[C@@H]1[C@@H](CC[C@@H](O)C2CCCCC2)[C@H](O)C[C@H]1Cl [Compound (II), (5Z)-(9R, 11R, 15R)-9-Chloro-15-cyclohexyl-11,15-dihydroxy-3-oxa-16,17,18,19,20-pentanor-5-prostenoic Acid t-Butyl Ester]
[3]; 5 μg of compound
  reduction of intraocular pressure: ~50%
[3]; PG dose 1 μg per treatment
  Percent IOP Reduction at Hours after Dose/Dose# 2/5: 30.8 ± 4.7%
  Percent IOP Reduction at Hours after Dose/Dose# 4/5: 26.4 ± 4.7%
  Percent IOP Reduction at Hours after Dose/Dose# 6/5: 24.9 ± 4.0%
  Percent IOP Reduction at Hours after Dose/Dose# 16/4: 22.3 ± 2.7%
[3]; PG dose 5 μg per treatment
  Percent IOP Reduction at Hours after Dose/Dose# 2/5: 47.5 ± 5.1%
  Percent IOP Reduction at Hours after Dose/Dose# 4/5: 43.7 ± 5.6%
  Percent IOP Reduction at Hours after Dose/Dose# 6/5: 36.5 ± 5.8%
[3]; PG dose 5 μg per treatment, lasered right eye, topical
  Percent IOP Reduction at Hours after Dose/Dose# 16/4: 38.3 ± 3.0%
[3]
  reduction of intraocular pressure (in words): significant reduction

## CC(C)OC(=O)CCC/C=C\C[C@@H]1[C@@H](CC[C@@H](O)C2CCCCC2)[C@H](O)C[C@H]1Cl [Compound (IV), (5Z)-(9R, 11R, 15R)-9-Chloro-15-cyclohexyl-11,15-dihydroxy-16,17,18,19,20-pentanor-5-prostenoic Acid Isopropyl Ester]
[3]; PG dose 20 μg per treatment
  Percent IOP Reduction at Hours after Dose/Dose# 2/5: 30.1 ± 4.8%
  Percent IOP Reduction at Hours after Dose/Dose# 4/5: 22.4 ± 5.2%
  Percent IOP Reduction at Hours after Dose/Dose# 6/5: 19.3 ± 4.3%
  Percent IOP Reduction at Hours after Dose/Dose# 16/4: 13.9 ± 2.7%
[3]
  reduction of intraocular pressure (in words): significant reduction

## CCCCC[C@H](O)/C=C/[C@H]1C(=O)C[C@H](O)[C@@H]1C/C=C\CCCC(=O)O [PGD2]
[1]; 250 μg
  maximum IOP reduction: approximately 28%
[2]; 50 μg
  reduction of intraocular pressure in human eyes: 12%
